Measured values as given in patent publication US9145415B2, “Nitrogen-containing heterocyclic compound or salt thereof” (FUJIFILM Corporation, priority 2012, dated 2015).
Where two headings read alike, the source gives them in different places.

Tests used:
[1] = target: T1, human FLT3 protein (FLT3 (WT)) (Homo sapiens, UniProt P36888); test: FLT3 inhibition test (FLT3 enzyme inhibition, time-resolved fluorescence of substrate peptide phosphorylation); type: biochemical; conditions: read-out: FLT3 (WT) enzyme inhibition activity
T1 construct: human FLT3 protein (intracellular region, 564 to 993 aa); GST; purchased Carna Biosciences; host or cells: baculovirus expression system
T1 sequence (P36888 564-993): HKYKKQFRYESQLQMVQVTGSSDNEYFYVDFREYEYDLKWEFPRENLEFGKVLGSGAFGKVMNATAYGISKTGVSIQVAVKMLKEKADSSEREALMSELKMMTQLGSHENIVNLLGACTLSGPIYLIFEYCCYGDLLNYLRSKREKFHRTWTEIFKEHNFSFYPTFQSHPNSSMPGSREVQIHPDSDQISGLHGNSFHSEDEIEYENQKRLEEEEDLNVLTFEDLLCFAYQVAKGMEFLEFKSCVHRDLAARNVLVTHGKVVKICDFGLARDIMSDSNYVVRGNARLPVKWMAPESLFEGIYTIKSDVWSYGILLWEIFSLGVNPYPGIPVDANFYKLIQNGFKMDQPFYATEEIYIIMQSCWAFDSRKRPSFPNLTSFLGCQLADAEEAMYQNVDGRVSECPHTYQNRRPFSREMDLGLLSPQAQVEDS
Outline: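 Substrate peptide phosphorylation detected by time-resolved fluorescence after a 30 min kinase reaction at 25° C with 50 μM ATP (final). Beforehand, compound and FLT3 (WT, 1.2 μg) stood 15 min at 25° C in HEPES buffer pH 7.5 containing MgCl2, NaCl, BSA and DTT.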

MV4-11 cells = test: Leukemia cell proliferation inhibition test (ATPlite), MV4-11; type: cell-based; conditions: read-out: MV4-11 cell proliferation inhibition effect
Outline: (§1)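 72 h proliferation, 37° C/5% CO2; 10,000 cells/well, RPMI/10% FBS; ATPlite luminescence (RLU); 0.1% DMSO taken as 0% inhibition; GI50 via sigmoid fit, n=2.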

Molm-13 cells = test: Leukemia cell proliferation inhibition test (ATPlite), Molm-13; type: cell-based; conditions: read-out: MOLM13 cell proliferation inhibition effect
Outline: as §1

[2] = GST-fused human FLT3 (564 to 993 aa), ATP 50 μM
[3] = Homo sapiens, MV4-11, 72 h, MV4-11, 72 hours culture, ATPlite, GI50 per method
[4] = Homo sapiens, MOLM-13, 72 h, Molm-13, 72 hours culture, ATPlite, GI50 per method
[5] = Homo sapiens, MV4-11, MV4-11 cell
[6] = Homo sapiens, MOLM-13, MOLM13 cell

`CCCN(CCC)c1nc(Nc2cccc(F)c2)ncc1C#CCCCNC(=O)[C@H](C)N(C)C(=O)/C=C/CN(C)C` [Compound 10-10] showed an IC50 [1, 2] of under 10 nM, an IC50 (MV4-11 cells; [3]) of under 10 nM and an IC50 (Molm-13 cells; [4]) of under 10 nM.
Molecule `CCCNc1nc(NCCc2ccncc2)ncc1C(=O)Nc1cccc(NC(=O)[C@H](C)NC(=O)/C=C/CN(C)C)c1` [Compound 1-2, (S,E)-N-(3-(2-(4-(dimethylamino)-2-butenamido)propanamido)phenyl)-4-(propylamino)-2-((2-(pyridin-4-yl)ethyl)amino)pyrimidine-5-carboxamide] has an IC50 [1, 2] of under 10 nM, an IC50 (MV4-11 cells; [3]) of under 10 nM and an IC50 (Molm-13 cells; [4]) of 10 to 100 nM.
`CCCNc1nc(Nc2ccc3cnn(CCOC)c3c2)ncc1C#CCCCNC(=O)[C@@H]1CCCN1C(=O)/C=C/CN(C)C` [Compound 22-33] gave an IC50 ([1]; FLT3 (WT)) of under 10 nM, an IC50 (MV4-11 cells; [5]) of under 10 nM and an IC50 (Molm-13 cells; [6]) of under 10 nM.
`CCCNc1nc(Nc2cnc3[nH]nc(OC)c3c2)ncc1C#CCCCNC(=O)[C@@H]1CCCN1C(=O)/C=C/CN(C)C` [Compound 22-57, (S,E)-1-(4-(Dimethylamino)-2-butenoyl)-N-(5-(2-((3-methoxy-1H-pyrazolo[3,4-b]pyridin-5-yl)amino)-4-(propylamino)pyrimidin-5-yl)-4-pentyn-1-yl)pyrrolidine-2-carboxamide] showed an IC50 ([1]; FLT3 (WT)) of under 10 nM, an IC50 (MV4-11 cells; [5]) of under 10 nM and an IC50 (Molm-13 cells; [6]) of under 10 nM.
Work on `CCCNc1nc(Nc2ccc(C(N)=O)cc2)ncc1C#CCCCNC(=O)CNC(=O)/C=C/CN(C)C` [Compound 7-2] yielded an IC50 [1, 2] of under 10 nM, an IC50 (MV4-11 cells; [3]) of under 10 nM and an IC50 (Molm-13 cells; [4]) of under 10 nM.
With `C[C@@H](C(=O)NCCCC#Cc1cnc(Nc2ccc3c(cnn3C)c2)nc1NC1CC1)N(C)C(=O)/C=C/CN(C)C` [Compound 10-54] the IC50 [1, 2] was under 10 nM, the IC50 (MV4-11 cells; [3]) was under 10 nM and the IC50 (Molm-13 cells; [4]) was under 10 nM.
`CC(C)c1ccc(Nc2nc(Nc3cccc(F)c3)ncc2C#CCCCNC(=O)[C@H](C)N(C)C(=O)/C=C/CN(C)C)cc1` [Compound 10-12] gave an IC50 [1, 2] of under 10 nM, an IC50 (MV4-11 cells; [3]) of under 10 nM and an IC50 (Molm-13 cells; [4]) of 10 to 100 nM.
`CCCNc1nc(Nc2cccc(F)c2)ncc1C#CCCCNC(=O)CN(C)C(=O)/C=C/CN(C)C` [Compound 7-24, (E)-4-(Dimethylamino)-N-(2-((5-(2-((3-fluorophenyl)amino)-4-(propylamino)pyrimidin-5-yl)-4-pentyn-1-yl)amino)-2-oxoethyl)-N-methyl-2-butenamide] gave an IC50 [1, 2] of under 10 nM, an IC50 (MV4-11 cells; [3]) of under 10 nM and an IC50 (Molm-13 cells; [4]) of under 10 nM.
For `C[C@@H](C(=O)Nc1cccc(C#Cc2cnc(Nc3ccc(C#N)cc3)nc2NC2CC2)n1)N(C)C(=O)/C=C/CN(C)C` [Compound 8-18], the IC50 [1, 2] was under 10 nM, the IC50 (MV4-11 cells; [3]) was 10 to 100 nM and the IC50 (Molm-13 cells; [4]) was 10 to 100 nM.
Work on `C[C@@H](C(=O)NCCCC#Cc1cnc(Nc2ccc(C#N)cc2)nc1-n1nccn1)N(C)C(=O)/C=C/CN(C)C` [Compound 20-3] yielded an IC50 [1, 2] of 10 to 100 nM, an IC50 (MV4-11 cells; [3]) of under 10 nM and an IC50 (Molm-13 cells; [4]) of under 10 nM.
`CCCNc1nc(Nc2ccc(C(N)=O)cc2)ncc1C(=O)Nc1cccc(NC(=O)[C@H](C)N(C)C(=O)/C=C/CN(C)CCO)c1` [Compound 4-9] showed an IC50 [1, 2] of under 10 nM, an IC50 (MV4-11 cells; [3]) of under 10 nM and an IC50 (Molm-13 cells; [4]) of under 10 nM.
`C=CC(=O)N(C)[C@@H](C)C(=O)NCCCC#Cc1cnc(Nc2cccc(C#N)c2)nc1N1CCOCC1` [Compound 9-4] showed an IC50 [1, 2] of under 10 nM, an IC50 (MV4-11 cells; [3]) of 10 to 100 nM and an IC50 (Molm-13 cells; [4]) of 10 to 100 nM.
Work on `C=CC(=O)NCC(=O)Nc1cccc(CNC(=O)c2cnc(NCCc3ccncc3)nc2NCCC)c1` [Compound 2-27] yielded an IC50 [1, 2] of 10 to 100 nM, an IC50 (MV4-11 cells; [3]) of 100 to 1000 nM and an IC50 (Molm-13 cells; [4]) of 100 to 1000 nM.
With `CCCOc1nc(Nc2cccc(F)c2)ncc1C#C[C@@H]1CCC[C@H](NC(=O)[C@H](C)N(C)C(=O)/C=C/CN(C)C)C1` [Compound 21-52] the IC50 ([1]; FLT3 (WT)) was under 10 nM, the IC50 (MV4-11 cells; [5]) was under 10 nM and the IC50 (Molm-13 cells; [6]) was under 10 nM.
With `CCCNc1nc(Nc2ccc(C(N)=O)cc2)ncc1C#Cc1cccc(NC(=O)[C@H](C)N(C)C(=O)/C=C/CN(C)C)c1` [Compound 8-14] the IC50 [1, 2] was under 10 nM, the IC50 (MV4-11 cells; MV4-11, 72 hours culture, ATPlite, GI50 per method) was under 10 nM and the IC50 (Molm-13 cells; Molm-13, 72 hours culture, ATPlite, GI50 per method) was 10 to 100 nM.
`C[C@@H](C(=O)NCCCC#Cc1cnc(Nc2ccc(F)cc2)nc1N1CCN(C)CC1)N(C)C(=O)/C=C/CN(C)C` [Compound 10-28] gave an IC50 [1, 2] of under 10 nM, an IC50 (MV4-11 cells; [3]) of under 10 nM and an IC50 (Molm-13 cells; [4]) of 10 to 100 nM.
`CCCNc1nc(Nc2ccc3c(OC)n[nH]c3c2)ncc1C#CCCCNC(=O)[C@@H]1CCCN1C(=O)/C=C/CN(C)C` [Compound 22-68] gave an IC50 ([1]; FLT3 (WT)) of under 10 nM, an IC50 (MV4-11 cells; [5]) of under 10 nM and an IC50 (Molm-13 cells; [6]) of under 10 nM.
For `C[C@@H](C(=O)NCCCC#Cc1cnc(Nc2cncc(F)c2)nc1NC1CC1)N(C)C(=O)/C=C/CN(C)C` [Compound 9-22], the IC50 [1, 2] was under 10 nM, the IC50 (MV4-11 cells; [3]) was under 10 nM and the IC50 (Molm-13 cells; [4]) was 10 to 100 nM.
With `CNc1nc(Nc2ccc(F)cc2)ncc1C#CCCCNC(=O)[C@@H]1C[C@@H](O)CN1C(=O)/C=C/CN(C)C` [Compound 7-85] the IC50 [1, 2] was under 10 nM, the IC50 (MV4-11 cells; [3]) was under 10 nM and the IC50 (Molm-13 cells; [4]) was under 10 nM.
`CCCN(C)c1nc(Nc2ccnc(F)c2)ncc1C#CCCCNC(=O)[C@H](C)N(C)C(=O)/C=C/CN(C)C` [Compound 9-10] was tested, and the IC50 [1, 2] was under 10 nM, the IC50 (MV4-11 cells; [3]) was under 10 nM and the IC50 (Molm-13 cells; [4]) was under 10 nM.
With `CNc1nc(Nc2cccc(F)c2)ncc1C#CCCCNC(=O)[C@@H]1C[C@H](F)CN1C(=O)/C=C/CN(C)C` [Compound 7-72, (2S,4S)-1-((E)-4-(Dimethylamino)-2-butenoyl)-4-fluoro-N-(5-(2-((3-fluorophenyl)amino)-4-(methylamino)pyrimidin-5-yl)-4-pentyn-1-yl)pyrrolidine-2-carboxamide] the IC50 [1, 2] was under 10 nM, the IC50 (MV4-11 cells; [3]) was under 10 nM and the IC50 (Molm-13 cells; [4]) was under 10 nM.
In the case of `CNc1nc(Nc2ccc(C#N)cc2)ncc1C#CCCCNC(=O)[C@@H]1CCCN1C(=O)/C=C/CN(C)C` [Compound 21-45], the IC50 ([1]; FLT3 (WT)) is reported as under 10 nM, the IC50 (MV4-11 cells; [5]) is reported as under 10 nM and the IC50 (Molm-13 cells; [6]) is reported as under 10 nM.
`CCCNc1nc(Nc2ccc(C#N)cc2)ncc1C#CCCCNC(=O)[C@@H]1CCCCN1C(=O)/C=C/CN(C)C` [Compound 7-37] was tested, and the IC50 [1, 2] was under 10 nM, the IC50 (MV4-11 cells; [3]) was under 10 nM and the IC50 (Molm-13 cells; [4]) was under 10 nM.
Work on `CCCNc1nc(Nc2ccc(C#N)cc2)ncc1C#CCCCNC(=O)[C@@H]1C[C@@H](OC)CN1C(=O)/C=C/CN(C)C` [Compound 7-60] yielded an IC50 [1, 2] of under 10 nM, an IC50 (MV4-11 cells; [3]) of under 10 nM and an IC50 (Molm-13 cells; [4]) of under 10 nM.
In the case of `CCCCCN(CC(=O)NCCCC#Cc1cnc(Nc2ccc(C#N)cc2)nc1NCCC)C(=O)/C=C/CN(C)C` [Compound 7-71], the IC50 [1, 2] is reported as under 10 nM, the IC50 (MV4-11 cells; [3]) is reported as under 10 nM and the IC50 (Molm-13 cells; [4]) is reported as under 10 nM.
`CCCNc1nc(Nc2cnc(NC)c(F)c2)ncc1C#CCCCNC(=O)[C@H](C)N(C)C(=O)/C=C/CN(C)C` [Compound 21-14] showed an IC50 [1, 2] of under 10 nM, an IC50 (MV4-11 cells; [3]) of 10 to 100 nM and an IC50 (Molm-13 cells; [4]) of 10 to 100 nM.
Work on `C[C@@H](C(=O)N[C@H]1CCC[C@@H](C#Cc2cnc(Nc3cccc(F)c3)nc2NC2CC2)C1)N(C)C(=O)/C=C/CN(C)C` [Compound 21-29] yielded an IC50 [1, 2] of under 10 nM, an IC50 (MV4-11 cells; [3]) of under 10 nM and an IC50 (Molm-13 cells; [4]) of under 10 nM.
Work on `CCCNc1nc(Nc2ccc(C(N)=O)cc2)ncc1C(=O)NCCCNC(C)(C)CNC(=O)/C=C/CN(C)C` [Compound 3-24] yielded an IC50 [1, 2] of under 10 nM, an IC50 (MV4-11 cells; [3]) of 10 to 100 nM and an IC50 (Molm-13 cells; [4]) of 100 to 1000 nM.
`CCCNc1nc(Nc2ccc(C#N)cc2)ncc1C#C[C@@H]1CCC[C@H](NC(=O)[C@H](C)N(C)C(=O)/C=C/CN(C)C)C1` [Compound 13-4] showed an IC50 [1, 2] of under 10 nM, an IC50 (MV4-11 cells; [3]) of under 10 nM and an IC50 (Molm-13 cells; [4]) of under 10 nM.
`CCCNc1nc(Nc2cnc3c(c2)c(C)nn3CCOC)ncc1C#CCCCNC(=O)[C@@H]1CCCN1C(=O)/C=C/CN(C)C` [Compound 22-46] was tested, and the IC50 ([1]; FLT3 (WT)) was under 10 nM, the IC50 (MV4-11 cells; [5]) was under 10 nM and the IC50 (Molm-13 cells; [6]) was under 10 nM.
`CCCNc1nc(Nc2ccc(OC(F)(F)F)cc2)ncc1C#CCCCNC(=O)[C@H](C)N(C)C(=O)/C=C/CN(C)C` [Compound 12-6] gave an IC50 [1, 2] of 10 to 100 nM, an IC50 (MV4-11 cells; [3]) of 10 to 100 nM and an IC50 (Molm-13 cells; [4]) of 100 to 1000 nM.
